In US20240327393A1 (SIRONAX LTD., priority 2021, published 2024):

Test system: HT-1080 (ATCC, CCL-121) cells
Assay: HT-1080 cell viability assay with ferroptosis inducer RSL3 (Cell Titer-Glo)
Type: cell-based
Settings: Homo sapiens; HT-1080 cells treated with RSL3; 3-fold, 10-point dilution, 1.1 μM highest concentration; Table 2; read-out: EC50 (nM), ferroptosis inhibitory activity
Procedure, shortened: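 HT-1080 cells (6000 per well) were cultured overnight at 37 °C, then co-treated with RSL3 and compound in a 3-fold, 10-point series topping at 1.1 μM. Viability was read by CellTiter-Glo luminescence and normalized to untreated controls. EC50 came from a sigmoidal non-linear regression fit.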

EC50 [nM]	Structure (SMILES)
0.1 to 100	CC1CCN(c2ccc(Nc3ccc4c(c3)n(C)c(=O)n4C)cc2)CC1 [Compound 287, 1,3-dimethyl-5-((4-(4-methylpiperidin-1-yl)phenyl)amino)-1,3-dihydro-2H-benzo[d]imidazol-2-one]
0.1 to 100	Cc1cc(Nc2ccc(N3CCC(C(F)(F)F)CC3)cc2)cc2c1C(=O)N(C)C2 [Compound 326, 2,7-dimethyl-5-((4-(4-(trifluoromethyl)piperidin-1-yl)phenyl)amino) isoindolin-1-one]
0.1 to 100	CC1CN(c2ccc(Nc3ccc4c(c3)OCC(=O)N4C)cc2)CCO1 (stereo not shown) [Compound 149, 4-methyl-7-((4-(2-methylmorpholino)phenyl)amino)-2H-benzo[b][1,4]oxazin-3(4H)-one]
0.1 to 100	CC1CCN(c2c(F)cc(Nc3ccc4c(c3)n(C)c(=O)n4C)cc2F)CC1 [Compound 274, 5-((3,5-difluoro-4-(4-methylpiperidin-1-yl)phenyl)amino)-1,3-dimethyl-1,3-dihydro-2H-benzo[d]imidazol-2-one]
0.1 to 100	O=C1NCc2cc(Nc3ccc(N4CCC(C(F)(F)F)CC4)cc3)ccc21 [Compound 182, 5-((4-(4-(trifluoromethyl)piperidin-1-yl)phenyl)amino)isoindolin-1-one]
0.1 to 100	Cn1c(=O)n(C)c2cc(Nc3cnc(N4CCC(C(F)(F)F)CC4)c(F)c3)ccc21 [Compound 378, 5-((5-fluoro-6-(4-(trifluoromethyl)piperidin-1-yl)pyridin-3-yl)amino)-1,3-dimethyl-1,3-dihydro-2H-benzo[d]imidazol-2-one]
0.1 to 100	Cc1nc(N2CCC(C(F)(F)F)CC2)ccc1Nc1ccc2c(c1)n(C)c(=O)n2C [Compound 373, 1,3-dimethyl-5-((2-methyl-6-(4-(trifluoromethyl)piperidin-1-yl)pyridin-3-yl)amino)-1,3-dihydro-2H-benzo[d]imidazol-2-one]
100 to 1000	Cn1c(=O)n(C)c2cc(Nc3ccc4c(c3)OCCO4)ccc21 [Compound 307, 5-((2,3-dihydrobenzo[b][1,4]dioxin-6-yl)amino)-1,3-dimethyl-1,3-dihydro-2H-benzo[d]imidazol-2-one]
0.1 to 100	CN1Cc2cc(Nc3ccc(N4CCC(C(F)(F)F)CC4)cc3)ccc2C1=N [Compound 291, 1-imino-2-methyl-N-(4-(4-(trifluoromethyl)piperidin-1-yl)phenyl) isoindolin-5-amine]
0.1 to 100	CN1C(=O)COc2cc(Nc3ccc4cc(N5CCC(C(F)(F)F)CC5)ccc4c3)ccc21 [Compound 72, 4-methyl-7-((6-(4-(trifluoromethyl)piperidin-1-yl)naphthalen-2-yl)amino)-2H-benzo[b][1,4]oxazin-3(4H)-one]
0.1 to 100	CC1CN(c2ccc(Nc3ccc4c(c3)CNC4)cc2)CC(C)O1 (stereo not shown) [Compound 431, N-(4-(2,6-dimethylmorpholino)phenyl)isoindolin-5-amine]
100 to 1000	CN1CCOc2cc(Nc3ccc(N4CCC(C(F)(F)F)CC4)cc3)ccc2C1=O [Compound 346, 4-methyl-8-((4-(4-(trifluoromethyl)piperidin-1-yl)phenyl)amino)-3,4-dihydrobenzo[f][1,4]oxazepin-5(2H)-one]
0.1 to 100	O=C1c2ccc(Nc3ccc(N4CCC(C(F)(F)F)CC4)cc3)cc2CN1CC1CC1 [Compound 179, 2-(cyclopropylmethyl)-5-((4-(4-(trifluoromethyl)piperidin-1-yl)phenyl)amino)isoindolin-1-one]
0.1 to 100	COC1(C(F)(F)F)CCN(c2ccc(Nc3ccc4c(c3)OCC(=O)N4)cc2)CC1 [Compound 162, 7-((4-(4-methoxy-4-(trifluoromethyl)piperidin-1-yl)phenyl)amino)-2H-benzo[b][1,4]oxazin-3(4H)-one]
0.1 to 100	CC1CN(c2ccc(Nc3ccc4c(c3)n(C)c(=O)n4CCN(C)C)cc2)CC(C)O1 (stereo not shown) [Compound 426, 1-(2-(dimethylamino)ethyl)-5-((4-(2,6-dimethylmorpholino)phenyl)amino)-3-methyl-1,3-dihydro-2H-benzo[d]imidazol-2-one]
0.1 to 100	CN1CCC(N2Cc3cc(Nc4ccc(N5CCC(C)(C)CC5)cc4)ccc3C2=O)CC1 [Compound 247, 5-((4-(4,4-dimethylpiperidin-1-yl)phenyl)amino)-2-(1-methylpiperidin-4-yl)isoindolin-1-one]
0.1 to 100	COc1cc(N2CCC(C)CC2)cc(F)c1Nc1ccc2c(c1)n(C)c(=O)n2C [Compound 272, 5-((2-fluoro-6-methoxy-4-(4-methylpiperidin-1-yl)phenyl)amino)-1,3-dimethyl-1,3-dihydro-2H-benzo[d]imidazol-2-one]

Second part, the compound before the results:

Structure (SMILES)	EC50 [nM]
CN1Cc2cc(Nc3ccc(N(C)C)nc3)ccc2C1=O [Compound 235, 5-((6-(dimethylamino)pyridin-3-yl)amino)-2-methylisoindolin-1-one]	0.1 to 100
Cc1cc(Nc2ccc3c(c2)OCC(=O)N3)cnc1N1C[C@@H](C)O[C@@H](C)C1 [Compound 151, 7-((6-(2,6-dimethylmorpholino)-5-methylpyridin-3-yl)amino)-2H-benzo[b][1,4]oxazin-3(4H)-one]	0.1 to 100
CN1C(=O)COc2cc(Nc3ccc(N4CCC(C(F)(F)F)CC4)cc3F)ccc21 [Compound 34, 7-((2-fluoro-4-(4-(trifluoromethyl)piperidin-1-yl)phenyl)amino)-4-methyl-2H-benzo[b][1,4]oxazin-3(4H)-one]	100 to 1000
CN1C(=O)COc2cc(Nc3ccc(N4CC5CC(C4)O5)c(F)c3)ccc21 [Compound 99, 7-((4-(6-oxa-3-azabicyclo[3.1.1]heptan-3-yl)-3-fluorophenyl)amino)-4-methyl-2H-benzo[b][1,4]oxazin-3(4H)-one]	0.1 to 100
Cc1cc(N2CC(C)OC(C)C2)ccc1Nc1ccc2nn(C)cc2c1 (stereo not shown) [Compound 445, N-(4-(2,6-dimethylmorpholino)-2-methylphenyl)-2-methyl-2H-indazol-5-amine]	0.1 to 100

Same assay, conditions: Homo sapiens; HT-1080 cells treated with RSL3; 3-fold, 10-point dilution, 1.1 μM highest concentration; Table 3; read-out: EC50 (nM), ferroptosis inhibitory activity

EC50 [nM]	Structure (SMILES)
0.1 to 100	C[C@H]1CN(c2ccc(Nc3ccc4c(c3)OCC(=O)N4)cc2)CCN1C(=O)C(F)(F)F [Compound 553, (S)-7-((4-(3-methyl-4-(2,2,2-trifluoroacetyl)piperazin-1-yl)phenyl)amino)-2H-benzo[b][1,4]oxazin-3(4H)-one]
0.1 to 100	Cc1cc(N2CCC(F)CC2)ccc1Nc1ccc2c(c1)OCC(=O)N2 [Compound 518, 7-((4-(4-fluoropiperidin-1-yl)-2-methylphenyl)amino)-2H-benzo[b][1,4]oxazin-3(4H)-one]
0.1 to 100	COCCn1c(=O)n(C)c2ccc(Nc3ccc(N4CCC(C(F)(F)F)C4)cc3C)cc21 (stereo not shown) [Compound 620, 3-(2-methoxyethyl)-1-methyl-5-((2-methyl-4-(3-(trifluoromethyl)pyrrolidin-1-yl)phenyl)amino)-1,3-dihydro-2H-benzo[d]imidazol-2-one]
0.1 to 100	O=C1COc2cc(Nc3ccc(N4CCCCC4)cc3)ccc2N1 [Compound 517, 7-(4-(piperidin-1-yl)phenylamino)-2H-benzo[b][1,4]oxazin-3(4H)-one]

Further lines, the compound ahead of its results:

Structure (SMILES)	EC50 [nM]
COC1(C(F)(F)F)CCN(c2ccc(Nc3ccc4c(c3)OCC(=O)N4)c(C)n2)CC1 [Compound 503, 7-((6-(4-methoxy-4-(trifluoromethyl)piperidin-1-yl)-2-methylpyridin-3-yl)amino)-2H-benzo[b][1,4]oxazin-3(4H)-one]	0.1 to 100
Cc1cc(N2CCC(C(F)(F)F)CC2)ccc1Nc1ccc2c(C(N)=O)cn(C)c2c1 [Compound 551, 1-methyl-6-((2-methyl-4-(4-(trifluoromethyl)piperidin-1-yl)phenyl)amino)-1H-indole-3-carboxamide]	0.1 to 100
Cc1cc(N2CCC(C(C)(C)O)CC2)ccc1Nc1ccc2c(c1)OCC(=O)N2 [Compound 542, 7-((4-(4-(2-hydroxypropan-2-yl)piperidin-1-yl)-2-methylphenyl)amino)-2H-benzo[b][1,4]oxazin-3(4H)-one]	0.1 to 100
COCCOC1CCN(c2ccc(Nc3ccc4c(c3)OCC(=O)N4)c(C)c2)CC1 [Compound 505]	0.1 to 100
Cc1cc(N2C[C@@H](C)O[C@@H](C)C2)ccc1Nc1ccc2[nH]cnc2c1 [Compound 493, N-(4-((2R,6S)-2,6-dimethylmorpholino)-2-methylphenyl)-1H-benzo[d] imidazol-5-amine]	0.1 to 100
Cc1cc(N2CCC(C(F)F)CC2)ccc1Nc1ccc2c(c1)OCC(=O)N2 [Compound 654, 7-[4-[4-(difluoromethyl)-1-piperidyl]-2-methyl-anilino]-4H-1,4-benzoxazin-3-one]	0.1 to 100
Cc1cc(N2CC(OC(F)(F)F)C2)ccc1Nc1ccc2c(c1)OCC(O)C(=O)N2 (stereo not shown) [Compound 657, 3-hydroxy-8-[2-methyl-4-[3-(trifluoromethoxy)azetidin-1-yl]anilino]-3,5-dihydro-2H-1,5-benzoxazepin-4-one]	0.1 to 100
Cc1cc(N2CCC(C(F)(F)F)CC2)c(F)cc1Nc1ccc2c(c1)OCC(=O)N2 [Compound 488, 7-((5-fluoro-2-methyl-4-(4-(trifluoromethyl)piperidin-1-yl)phenyl)amino)-2H-benzo[b][1,4]oxazin-3(4H)-one]	0.1 to 100
Cc1cc(N2CCC(C(F)(F)F)CC2)ccc1Nc1ccc2c(c1)C(=O)NCC(=O)N2 [Compound 644, 7-((2-methyl-4-(4-(trifluoromethyl)piperidin-1-yl)phenyl)amino)-3,4-dihydro-1H-benzo[e][1,4]diazepine-2,5-dione]	0.1 to 100
Cc1cc(N2CCC(C(F)(F)F)CC2)ccc1Nc1ccc2c(c1)SCC(=O)N2 [Compound 593, 7-((2-methyl-4-(4-(trifluoromethyl)piperidin-1-yl)phenyl)amino)-2H-benzo[b][1,4]thiazin-3(4H)-one]	0.1 to 100
Cc1cc(Nc2ccc(N3CC(C)OC(C)C3)cc2)cc2c1N(C)C(=O)CO2 (stereo not shown) [Compound 463, 7-{[4-(2,6-dimethylmorpholin-4-yl)phenyl]amino}-4,5-dimethyl-2H-1,4-benzoxazin-3-one]	0.1 to 100
